One assay deals with RBL-2H3. As to the kind of experiment: Intracellular calcium increasing activity in RBL2H3 (FLIPR). The assay is classed as cell-based. The arrangement: unit not given here. In a few lines: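 Parental RBL-2H3 and RBL-2H3 stably expressing human TGR12 loaded with 4 μM Fluo3-AM for 1 h at 37 °C in HBSS/20 mM HEPES/2.5 mM probenecid.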
Assay [1] relates to human mast cell line LAD 2. As to the kind of experiment: TGR12 ligand-dependent degranulation of LAD 2 (β-hexosaminidase release). It counts as cell-based.
Description: Human mast cell line LAD 2 was incubated in StemPro-34 medium (Invitrogen) supplemented with 100 ng/mL of stem cell factor (Immuno-Biological Laboratories Co., Ltd.). […] Subsequently, Tyrode's buffer containing 50 μL of TGR12 ligand (Peptide Institute, Inc.) in various concentrations was added and incubation was continued at 37° C. for further 20 minutes to induce degranulation. The degree of degranulation was determined by assaying the β-hexosaminidase activity in the degranulation assay supernatant as given below. The supernatant was dispensed into a 96-well plate and 0.1M citrate (pH 4.5)/1 mM 4-methyl umbelliferyl-2-acetamido-2-deoxy-beta-D-glucopyranoside (Wako Pure Chemical) in 5-fold of the supernatant was added thereto, followed by incubation at 37° C. for an hour. […] The activity was then assayed using Fusion-α (Perkin-Elmer). The β-hexosaminidase activity was also shown by the activity in the supernatant obtained by centrifugation after freezing and thawing LAD 2 four times, which was made total β-hexosaminidase activity in LAD 2, and the degree of degranulation was shown as the percentage of the β-hexosaminidase activity in the LAD 2 supernatant based on the total β-hexosaminidase activity.
Another assay relates to TGR12. The assay is classed as cell-based, human. The protocol: CHO/dhfr^− cells (hereinafter CHO) were incubated in α-MEM (Invitrogen) supplemented with 10% fetal calf serum. After a termination codon in the TGR12-encoding nucleotide sequence was removed, a nucleotide sequence ligated with the nucleotide sequence encoding GFP (Wako Pure Chemical) [hereinafter briefly referred to as TGR12-GFP (DNA having the nucleotide sequence represented by SEQ ID NO: 31)] was incorporated into vector plasmid pAKKO-111H (the same vector plasmid as pAKKO1.11H described in Biochim. Biophys. Acta, 1219, 251-259 (1994)) for animal cell expression, and the vector plasmid was stably expressed to establish TGR12-GFP-expressed CHO cell line (hereinafter CHO-TGR12). CHO-TGR12 was incubated in nucleic acid-free α-MEM medium (Invitrogen) containing 10% dialyzed fetal calf serum.
CHO-TGR12 was plated in a 96-well plate at a density of 30,000 cells/well. After incubation overnight, the medium was discarded and 100 μL/well of assay buffer [Hank's Balanced Salt Solution (Invitrogen), 20 mM HEPES (Dojin Chemical Laboratory) and 2.5 mM Probenecid (Sigma)] containing 4 μM Fluo3-AM (Dojin Chemical Laboratory) was added, which was then allowed to stand for an hour at 37° C. […] After the cells were washed with assay buffer, fluorescence reflecting changes in intracellular calcium levels was assayed on FLIPR (Molecular Device). Ten seconds after initiation of the assay, 50 μL of a sample was added at a rate of 50 μL/second. Fluorescence measurement was taken every 1 second during the first 60 seconds and then every 6 seconds during the next 120 seconds; the highest fluorescence intensity over a 3 minute period was taken as the maximum activity under the stimulation condition, representing the mean value of 3 wells. The EC50 values were determined using Graphpad PRISM 4 (Graphpad Software).

In a further assay the target is T1, human TGR12 (Homo sapiens, UniProt Q96LB1).
T1 construct: expressed in transfected cells
T1 sequence (Q96LB1 1-330): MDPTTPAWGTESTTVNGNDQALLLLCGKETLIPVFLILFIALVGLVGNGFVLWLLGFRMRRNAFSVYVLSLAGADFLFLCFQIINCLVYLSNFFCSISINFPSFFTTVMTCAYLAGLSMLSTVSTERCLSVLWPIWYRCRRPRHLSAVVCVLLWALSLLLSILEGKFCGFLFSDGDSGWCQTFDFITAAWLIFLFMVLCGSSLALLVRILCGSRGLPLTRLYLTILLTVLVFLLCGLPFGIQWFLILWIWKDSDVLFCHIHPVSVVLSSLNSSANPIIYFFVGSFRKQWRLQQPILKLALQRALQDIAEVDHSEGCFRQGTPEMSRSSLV
As to the kind of experiment: Intracellular calcium increasing activity in RBL2H3-TGR12 (FLIPR). The assay is classed as cell-based. The protocol: RBL-2H3 (hereinafter RBL2H3) was incubated in α-MEM (Invitrogen) supplemented with 10% fetal calf serum. Vector plasmid pcDNA3.1 for animal cell expression, in which the nucleotide sequence containing the initiation codon to the termination codon of human TGR12 (DNA having the nucleotide sequence represented by SEQ ID NO: 32) was incorporated, was stably expressed in RBL-2H3 to establish human TGR12-expressed RBL-2H3 cell line (hereinafter RBL2H3-TGR12). RBL2H3-TGR12 was incubated in α-MEM (Invitrogen) supplemented with 10% fetal calf serum and 200 μg/mL of Geneticin.
The intracellular calcium increasing activity was assayed as follows. RBL2H3 and RBL2H3-TGR12 were plated in a 96-well plate at a density of 40,000 cells/well and incubated overnight. The medium was then discarded and 100 μL/well of 4 μM Fluo3-AM (Dojin Kagaku)-containing assay buffer [Hank's Balanced Salt Solution (Invitrogen), 20 mM HEPES (Dojin Kagaku) and 2.5 mM Probenecid (Sigma)] was added. The mixture was allowed to stand for an hour at 37° C. Various TGR12 (Peptide Institute, Inc.) or calcium ionophore A23187 (Wako Pure Chemical) was diluted in 0.05% CHAPS-containing assay buffer. After the cells were washed with the assay buffer, fluorescence emitted with changes in intracellular calcium was measured using FLIPR (Molecular Device). A sample, 50 μL, was added at a rate of 50 μL/sec. 10 seconds after initiation of the assay. Fluorescence was measured every 1 second during the first 60 seconds and every 6 seconds during the next 120 seconds. The highest fluorescence intensity during 3 minutes was made the maximum activity under the stimulation conditions, which was taken as an average of 3 wells. The EC50 values were calculated using Graphpad PRISM 4 (Graphpad Software).

Data on one compound can be found in patent US20100068208A1, “Degranulation inhibitor” (priority 2005, published 2010).

Molecules are shown by their SMILES. Like-named read-outs stand apart in the source and are kept apart here.

Broadly, the EC50 is the concentration at which the effect is half-maximal. Consider `CC[C@H](C)[C@H](NC(=O)CNC(=O)[C@H](CC(=O)O)NC(=O)[C@H](CO)NC(=O)[C@@H](N)Cc1c[nH]cn1)C(=O)N[C@@H](Cc1ccccc1)C(=O)N[C@H](C(=O)N[C@@H](CC(=O)O)C(=O)N[C@@H](CO)C(=O)N[C@@H](Cc1ccc(O)cc1)C(=O)N[C@@H](CO)C(=O)N[C@@H](CCCNC(=N)N)C(=O)N[C@@H](Cc1ccc(O)cc1)C(=O)N[C@@H](CCCNC(=N)N)C(=O)N[C@@H](CCCCN)C(=O)N[C@@H](CCC(N)=O)C(=O)N[C@@H](CCSC)C(=O)N[C@@H](C)C(=O)N[C@H](C(=O)N[C@@H](CCCCN)C(=O)N[C@@H](CCCCN)C(=O)N[C@@H](Cc1ccc(O)cc1)C(=O)N[C@@H](CC(C)C)C(=O)N[C@@H](C)C(=O)N[C@@H](C)C(=O)N[C@H](C(=O)N[C@@H](CC(C)C)C(N)=O)C(C)C)C(C)C)[C@@H](C)O` [PACAP-27], for which the “maximum activity in the calcium increasing effect” value came to 47 in the assay on RBL-2H3 (RBL2H3, 1 nM); 37 with RBL-2H3 (RBL2H3, 10 nM); 63 in the assay with RBL-2H3 (RBL2H3, 100 nM); 59 in the assay on RBL-2H3 (RBL2H3, 1 μM); 45 with RBL-2H3 (RBL2H3, 10 μM); 48 in the assay on TGR12 (CHO-TGR12, 0.3 nM, highest fluorescence intensity over 3 minutes). In addition, the “maximum activity in the calcium increasing effect” value in the assay on TGR12 (CHO-TGR12, 3 nM) is reported as 58; with TGR12 (CHO-TGR12, 30 nM) it was 939; with TGR12 (CHO-TGR12, 300 nM) it was 23030; in the assay on TGR12 (CHO-TGR12, 3000 nM), 23728; on human TGR12 (RBL2H3-TGR12, 1 nM) it was 40; on human TGR12 (RBL2H3-TGR12, 10 nM), 29. The “maximum activity in the calcium increasing effect” value on human TGR12 (RBL2H3-TGR12, 100 nM) is given as 5300; at human TGR12 (RBL2H3-TGR12, 1 μM), 11494; at human TGR12 (RBL2H3-TGR12, 10 μM), 12667. The “stimulated degranulation (β-hexosaminidase in supernatant, % of total)” value in assay [1] (LAD 2, 10 nM) is recorded as 2.6%; in assay [1] (LAD 2, 30 nM), 19.6%; in assay [1] (LAD 2, 100 nM), 59.4%; in assay [1] (LAD 2, 300 nM), 71.1%; in assay [1] (LAD 2, 1 μM) it was 75.1%; in assay [1] (LAD 2, 3 μM) it was 69.1%. Besides, the 50% effective concentration (EC50) was roughly 51 nM in assay [1] (LAD 2, read-out: EC50 in the degranulation on LAD 2) and roughly 93 nM in the assay on TGR12 (CHO-TGR12, read-out: EC50 in the calcium increasing effect on CHO-TGR12).
